According to ChEMBL document CHEMBL1773016, “Discovery and optimization of a series of benzothiazole phosphoinositide 3-kinase (PI3K)/mammalian target of rapamycin (mTOR) dual inhibitors” (J Med Chem, 2011):

Key:
[1] = molecular target: Phosphatidylinositol 4,5-bisphosphate 3-kinase catalytic subunit alpha isoform (Homo sapiens, UniProt P42336)
Description: Inhibition of human PI3Kalpha expressed in Sf9 cells

[2] = molecular target: Serine/threonine-protein kinase mTOR (Homo sapiens, UniProt P42345)
in vitro [3] = conditions: human, liver microsomes
Description: Clearance in human liver microsomes

in vitro [4] = conditions: rat, liver microsomes
Description: Clearance in rat liver microsomes

Sequence of Phosphatidylinositol 4,5-bisphosphate 3-kinase catalytic subunit alpha isoform (P42336 whole entry, canonical isoform): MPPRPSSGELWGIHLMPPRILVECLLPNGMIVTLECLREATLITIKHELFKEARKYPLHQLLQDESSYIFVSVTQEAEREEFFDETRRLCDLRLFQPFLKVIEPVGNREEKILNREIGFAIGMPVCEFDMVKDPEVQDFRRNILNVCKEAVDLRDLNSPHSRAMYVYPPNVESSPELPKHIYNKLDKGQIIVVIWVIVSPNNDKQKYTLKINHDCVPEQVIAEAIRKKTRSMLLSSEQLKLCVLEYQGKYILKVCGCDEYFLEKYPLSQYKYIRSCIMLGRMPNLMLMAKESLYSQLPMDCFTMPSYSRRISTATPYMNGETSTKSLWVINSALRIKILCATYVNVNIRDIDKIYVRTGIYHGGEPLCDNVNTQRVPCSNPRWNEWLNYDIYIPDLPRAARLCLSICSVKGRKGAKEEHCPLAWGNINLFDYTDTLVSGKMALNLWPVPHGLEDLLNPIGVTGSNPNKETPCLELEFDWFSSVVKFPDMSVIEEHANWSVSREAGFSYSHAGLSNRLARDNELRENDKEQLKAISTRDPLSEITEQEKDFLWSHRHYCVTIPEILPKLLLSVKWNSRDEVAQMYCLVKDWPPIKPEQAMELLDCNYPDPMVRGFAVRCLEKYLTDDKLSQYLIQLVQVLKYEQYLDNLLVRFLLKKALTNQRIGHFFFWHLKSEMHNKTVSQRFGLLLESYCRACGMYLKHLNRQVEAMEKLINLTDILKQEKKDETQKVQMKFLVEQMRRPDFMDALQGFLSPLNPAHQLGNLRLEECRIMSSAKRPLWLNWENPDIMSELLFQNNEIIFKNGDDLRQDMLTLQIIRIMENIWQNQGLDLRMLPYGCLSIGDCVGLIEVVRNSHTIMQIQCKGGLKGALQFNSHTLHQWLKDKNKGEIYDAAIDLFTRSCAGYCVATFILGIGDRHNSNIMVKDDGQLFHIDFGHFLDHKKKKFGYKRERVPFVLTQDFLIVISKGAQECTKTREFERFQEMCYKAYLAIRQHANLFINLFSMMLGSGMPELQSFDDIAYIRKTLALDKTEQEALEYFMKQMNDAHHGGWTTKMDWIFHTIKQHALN

COc1cccc(COc2nccc(-c3ccc4nc(NC(C)=O)sc4c3)n2)c1
Ki [1]: 18 nM
IC50 [2]: > 6000 nM

COc1ccc(S(=O)(=O)Nc2cc(-c3ccc4nc(NC(C)=O)sc4c3)ccn2)cc1
IC50 [2]: 29 nM

COc1ccc(Sc2nccc(-c3ccc4nc(NC(C)=O)sc4c3)n2)cc1
Ki [1]: 18 nM
IC50 [2]: 3010 nM

CC(=O)Nc1nc2ccc(-c3ccnc(OCc4cccc(F)c4)n3)cc2s1
IC50 [2]: > 6000 nM

CC(=O)Nc1nc2ccc(-c3ccnc(OCc4cccc(C)c4)n3)cc2s1
Ki [1]: 47 nM
IC50 [2]: > 6000 nM

CC(=O)Nc1nc2ccc(-c3ccnc(OCc4ccc(F)cc4)n3)cc2s1
IC50 [2]: > 6000 nM

CC(=O)Nc1nc2ccc(-c3ccnc(OCc4ccc(C)cc4)n3)cc2s1
Ki [1]: 58 nM
IC50 [2]: > 6000 nM

COc1ccc(COc2nccc(-c3ccc4nc(NC(C)=O)sc4c3)n2)cc1
Ki [1]: 58 nM
IC50 [2]: > 6000 nM

CC(=O)Nc1nc2ccc(-c3ccnc(OCc4ccncc4)n3)cc2s1
Ki [1]: 128 nM
IC50 [2]: > 6000 nM

CC(=O)Nc1nc2ccc(-c3ccnc(OCCCc4ccncc4)n3)cc2s1
Ki [1]: 114 nM
IC50 [2]: > 6000 nM

CC(=O)Nc1nc2ccc(-c3ccnc(OCCCc4cccnc4)n3)cc2s1
IC50 [2]: 913 nM

CC(=O)Nc1nc2ccc(-c3ccnc(OCCCc4ccccc4)n3)cc2s1
Ki [1]: 32 nM
IC50 [2]: > 6000 nM

CC(=O)Nc1nc2ccc(-c3ccnc(OCCCN4CCOCC4)n3)cc2s1
IC50 [2]: > 6000 nM

CC(=O)Nc1nc2ccc(-c3ccnc(NC(C)(C)c4ccccc4)n3)cc2s1
IC50 [2]: > 6000 nM

COc1ccc(C(=O)Nc2nccc(-c3ccc4nc(NC(C)=O)sc4c3)n2)cc1
Ki [1]: 3130 nM
IC50 [2]: > 6000 nM

COc1ccc(S(=O)(=O)Nc2nccc(-c3ccc4nc(NC(C)=O)sc4c3)n2)cc1
IC50 [2]: 57 nM

COc1ccc(S(=O)(=O)N(C)c2nccc(-c3ccc4nc(NC(C)=O)sc4c3)n2)cc1
Ki [1]: 76 nM
IC50 [2]: 285 nM
microsomal CLint (in vitro [3]): > 399 µL/min/mg
microsomal CLint (in vitro [4]): > 399 µL/min/mg

CCN(c1nccc(-c2ccc3nc(NC(C)=O)sc3c2)n1)S(=O)(=O)c1ccc(OC)cc1
Ki [1]: 62 nM
IC50 [2]: 262 nM

CC(=O)Nc1nc2ccc(-c3ccnc(NS(=O)(=O)c4ccccc4F)n3)cc2s1
Ki [1]: 41 nM
IC50 [2]: 45 nM

CC(=O)Nc1nc2ccc(-c3ccnc(N(C)S(=O)(=O)c4ccccc4F)n3)cc2s1
IC50 [2]: > 6000 nM

CC(=O)Nc1nc2ccc(-c3ccnc(NS(=O)(=O)c4cccc(F)c4)n3)cc2s1
Ki [1]: 84 nM
IC50 [2]: 47 nM

CC(=O)Nc1nc2ccc(-c3ccnc(NS(=O)(=O)c4ccc(F)cc4)n3)cc2s1
Ki [1]: 826 nM
IC50 [2]: 719 nM

CC(=O)Nc1nc2ccc(-c3ccnc(NS(=O)(=O)c4ccc(C)cc4)n3)cc2s1
Ki [1]: 82 nM
IC50 [2]: 65 nM

CC(=O)Nc1nc2ccc(-c3ccnc(N(C)S(=O)(=O)c4ccc(C)cc4)n3)cc2s1
IC50 [2]: 269 nM
microsomal CLint (in vitro [3]): 579 µL/min/mg
microsomal CLint (in vitro [4]): > 399 µL/min/mg

CC(=O)Nc1nc2ccc(-c3ccnc(Sc4ccccc4)n3)cc2s1
IC50 [2]: > 6000 nM

CC(=O)Nc1nc2ccc(-c3ccnc(SCc4ccccc4)n3)cc2s1
IC50 [2]: > 6000 nM

CC(=O)Nc1nc2ccc(-c3ccnc(Oc4ccccc4)n3)cc2s1
IC50 [2]: > 6000 nM

CC(=O)Nc1nc2ccc(-c3ccnc(OCc4ccccc4)n3)cc2s1
Ki [1]: 105 nM
IC50 [2]: > 6000 nM

CC(=O)Nc1nc2ccc(-c3ccnc(NCc4ccccc4)n3)cc2s1
Ki [1]: 85 nM
IC50 [2]: > 6000 nM

CC(=O)Nc1nc2ccc(-c3ccnc(Cc4ccccc4)n3)cc2s1
Ki [1]: 605 nM
IC50 [2]: > 6000 nM

CC(=O)Nc1nc2ccc(-c3ccnc(CCc4ccccc4)n3)cc2s1
IC50 [2]: > 6000 nM

CC(=O)Nc1nc2ccc(-c3ccnc(Sc4ccccc4F)n3)cc2s1
Ki [1]: 46 nM
IC50 [2]: > 6000 nM

CC(=O)Nc1nc2ccc(-c3ccnc(Sc4cccc(F)c4)n3)cc2s1
Ki [1]: 31 nM
IC50 [2]: > 6000 nM

CC(=O)Nc1nc2ccc(-c3ccnc(Sc4ccc(F)cc4)n3)cc2s1
Ki [1]: 44 nM
IC50 [2]: > 6000 nM

CC(=O)Nc1nc2ccc(-c3ccnc(Sc4ccccc4C)n3)cc2s1
IC50 [2]: > 6000 nM

CC(=O)Nc1nc2ccc(-c3ccnc(Sc4cccc(C)c4)n3)cc2s1
Ki [1]: 53 nM
IC50 [2]: > 6000 nM

CC(=O)Nc1nc2ccc(-c3ccnc(Sc4ccc(C)cc4)n3)cc2s1
Ki [1]: 59 nM
IC50 [2]: > 6000 nM

COc1ccccc1Sc1nccc(-c2ccc3nc(NC(C)=O)sc3c2)n1
IC50 [2]: > 6000 nM

COc1cccc(Sc2nccc(-c3ccc4nc(NC(C)=O)sc4c3)n2)c1
Ki [1]: 48 nM
IC50 [2]: > 6000 nM

COc1ccc(S(=O)(=O)Nc2cncc(-c3ccc4nc(NC(C)=O)sc4c3)c2)cc1
Ki [1]: 1.6 nM
IC50 [2]: 11 nM

COc1ccc(S(=O)(=O)Nc2cncc(-c3ccc4nc(NC(C)=O)sc4c3)n2)cc1
Ki [1]: 9 nM
IC50 [2]: 15 nM

COc1ccc(S(=O)(=O)Nc2cccc(-c3ccc4nc(NC(C)=O)sc4c3)c2)cc1
Ki [1]: 48 nM
IC50 [2]: 1500 nM

COc1ccc(S(=O)(=O)Nc2cc(-c3ccc4nc(NC(C)=O)sc4c3)cnc2C#N)cc1
Ki [1]: 1.4 nM
IC50 [2]: 1.6 nM

COc1ccc(S(=O)(=O)Nc2cc(-c3ccc4nc(NC(C)=O)sc4c3)cnc2C)cc1
Ki [1]: 1.2 nM
IC50 [2]: 6 nM

COc1ccc(S(=O)(=O)Nc2cc(-c3ccc4nc(NC(C)=O)sc4c3)cnc2Cl)cc1
Ki [1]: < 1 nM
IC50 [2]: 2.1 nM
microsomal CLint (in vitro [3]): 42 µL/min/mg
microsomal CLint (in vitro [4]): > 399 µL/min/mg

CC(=O)Nc1nc2ccc(-c3cnc(Cl)c(NS(=O)(=O)c4ccccc4)c3)cc2s1
IC50 [2]: < 1 nM
microsomal CLint (in vitro [3]): < 14 µL/min/mg
microsomal CLint (in vitro [4]): > 399 µL/min/mg

CC(=O)Nc1nc2ccc(-c3cnc(Cl)c(NS(=O)(=O)c4ccccc4C(F)(F)F)c3)cc2s1
Ki [1]: < 1 nM
IC50 [2]: < 1 nM
microsomal CLint (in vitro [3]): < 14 µL/min/mg
microsomal CLint (in vitro [4]): 500 µL/min/mg

CC(=O)Nc1nc2ccc(-c3cnc(Cl)c(NS(=O)(=O)c4cccc(C(F)(F)F)c4)c3)cc2s1
Ki [1]: < 1 nM
IC50 [2]: < 1 nM
microsomal CLint (in vitro [3]): 17 µL/min/mg
microsomal CLint (in vitro [4]): 36 µL/min/mg

CC(=O)Nc1nc2ccc(-c3cnc(Cl)c(NS(=O)(=O)c4ccc(C(F)(F)F)cc4)c3)cc2s1
Ki [1]: < 1 nM
IC50 [2]: 1.6 nM
microsomal CLint (in vitro [3]): < 14 µL/min/mg
microsomal CLint (in vitro [4]): < 14 µL/min/mg

CC(=O)Nc1nc2ccc(-c3cnc(Cl)c(NS(=O)(=O)c4ccccc4Cl)c3)cc2s1
Ki [1]: < 1 nM
IC50 [2]: < 1 nM
microsomal CLint (in vitro [3]): < 14 µL/min/mg
microsomal CLint (in vitro [4]): > 399 µL/min/mg

CC(=O)Nc1nc2ccc(-c3cnc(Cl)c(NS(=O)(=O)c4cccc(Cl)c4)c3)cc2s1
Ki [1]: < 1 nM
IC50 [2]: < 1 nM
microsomal CLint (in vitro [3]): 16 µL/min/mg
microsomal CLint (in vitro [4]): > 399 µL/min/mg

CC(=O)Nc1nc2ccc(-c3cnc(Cl)c(NS(=O)(=O)c4ccc(Cl)cc4)c3)cc2s1
Ki [1]: < 1 nM
IC50 [2]: < 1 nM
microsomal CLint (in vitro [3]): < 14 µL/min/mg
microsomal CLint (in vitro [4]): < 14 µL/min/mg

CC(=O)Nc1nc2ccc(-c3cnc(Cl)c(NS(=O)(=O)c4cccc(C(C)(C)C)c4)c3)cc2s1
Ki [1]: < 1 nM
IC50 [2]: 2.1 nM
microsomal CLint (in vitro [3]): 83 µL/min/mg
microsomal CLint (in vitro [4]): 610 µL/min/mg

CC(=O)Nc1nc2ccc(-c3cnc(Cl)c(NS(=O)(=O)c4ccc(C(C)(C)C)cc4)c3)cc2s1
Ki [1]: < 1 nM
IC50 [2]: 2.1 nM
microsomal CLint (in vitro [3]): 135 µL/min/mg
microsomal CLint (in vitro [4]): 460 µL/min/mg

CC(=O)Nc1nc2ccc(-c3cnc(Cl)c(NS(=O)(=O)c4ccccc4F)c3)cc2s1
Ki [1]: < 1 nM
IC50 [2]: 1.1 nM
microsomal CLint (in vitro [3]): < 14 µL/min/mg
microsomal CLint (in vitro [4]): 320 µL/min/mg

CC(=O)Nc1nc2ccc(-c3cnc(Cl)c(NS(=O)(=O)c4cccc(F)c4)c3)cc2s1
Ki [1]: 1.1 nM
IC50 [2]: 2.3 nM
microsomal CLint (in vitro [3]): < 14 µL/min/mg
microsomal CLint (in vitro [4]): > 399 µL/min/mg
